Experimental data reported in article PMC4469479 (Nature, 2015).

Key:
dDATmfc sub^B = dDATmfc sub^B (Drosophila melanogaster, UniProt Q7K4Y6, D121G/DEL162-202/DEL602-606/INS607VPRG/L415A/S426M/V74A); format: binding
dDATmfc [1] = molecular target: T1, dDATmfc (Drosophila melanogaster, UniProt Q7K4Y6, DEL162-202/DEL602-606/INS607VPRG/L415A/V74A); format: binding
dDATmfc [2] = molecular target: T1, dDATmfc; settings: HEK293S cells; 14C-DA 0.3–60 μM; s.e.m.

NCCc1ccc(Cl)c(Cl)c1 [DCP, 3,4-dichlorophenethylamine]
Ki (dDATmfc sub^B): 267 ± 20 nM

COC(=O)[C@H]1[C@@H](OC(=O)c2ccccc2)C[C@@H]2CC[C@H]1N2C [cocaine]
Ki (dDATmfc [1]): 33 ± 3 µM

NCCc1ccc(O)c(O)c1 [dopamine]
Vmax of DA transport by dDATmfc (dDATmfc [2]): 2.4 ± 0.2 pmol/min/10^6 cells
